# Values of other authors in patent US20260125371A1, “METHOD FOR INHIBITING CLOSTRIDIOIDES DIFFICILE SPORE GERMINATION” (UNIVERSITY OF NOTRE DAME DU LAC, priority 2022, published 2026).
# Like-named read-outs stand apart in the source and are kept apart here.
# Columns and labels:
# C. difficile strains = conditions: cited from earlier work
# S. aureus = conditions: cited from earlier work
# [1] = tested on: S. haemolyticus ATCC 29970; conditions: cited from earlier work
# S. oralis ATCC 9811 = conditions: cited from earlier work
# S. pyogenes ATCC 49399 = conditions: cited from earlier work
# B. cereus ATCC 13061 = conditions: cited from earlier work
# E. faecalis = conditions: cited from earlier work
# E. faecium = conditions: cited from earlier work
# [2] = tested on: Bifidobacterium longum HM-846; conditions: cited from earlier work
# K. pneumoniae ATCC700603 = conditions: cited from earlier work
# A. baumanii ATCC17961 = conditions: cited from earlier work
# P. aeruginosa ATCC27853 = conditions: cited from earlier work
# Gram-negative bacteria = conditions: organisms of Table 2; data from earlier publication; cited from earlier work
# [3] = C. difficile strains of Table 4
compound,measurement,setting,value
Oc1ccc(-c2nc(-c3ccc(OC4CCCC4)cc3)no2)cc1 [Compound 2],IMIC50 (101 strains),C. difficile strains; 101 C. difficile strains,2 µg/mL
same,MIC90 (101 strains),C. difficile strains; 101 C. difficile strains,4 µg/mL
same,MIC,"C. difficile strains; C. difficile 23828, resistant to FDX",4 µg/mL
same,MIC,"C. difficile strains; C. difficile 24531, resistant to VAN",4 µg/mL
same,MIC,"C. difficile strains; C. difficile 26675, resistant to MTZ",4 µg/mL
same,MIC,C. difficile strains; C. difficile BAA-1803,2 µg/mL
same,MIC,C. difficile strains; C. difficile BAA-1870,2 µg/mL
same,MIC,C. difficile strains; C. difficile NR49292,2 µg/mL
same,MIC,C. difficile strains; C. difficile NR49294,2 µg/mL
same,MIC,C. difficile strains; C. difficile NR49302,2 µg/mL
same,MIC,C. difficile strains; C. difficile NR49305,2 µg/mL
same,MIC,C. difficile strains; C. difficile NR49310,4 µg/mL
same,MIC,C. difficile strains; C. difficile NR49318,4 µg/mL
same,MIC50,C. difficile strains; [3],2 µg/mL
same,MIC90,C. difficile strains; [3],4 µg/mL
same,MIC90,"C. difficile strains; C. difficile, reported earlier",4 µg/mL
same,MIC,C. difficile strains; strain ATCC43598,2 µg/mL
same,MIC,C. difficile strains; strain BAA-1801,2 µg/mL
same,MIC,C. difficile strains; strain BAA-1803,2 µg/mL
same,MIC,C. difficile strains; strain BAA-1804,2 µg/mL
same,MIC,C. difficile strains; strain BAA-1812,2 µg/mL
same,MIC,C. difficile strains; strain BAA-1814,2 µg/mL
same,MIC,C. difficile strains; strain BAA-1870,2 µg/mL
same,MIC,C. difficile strains; strain HM-88,4 µg/mL
same,MIC,C. difficile strains; strain HM-89,4 µg/mL
same,MIC,C. difficile strains; strain HM-745,4 µg/mL
same,MIC,C. difficile strains; strain HM-746,4 µg/mL
same,MIC,C. difficile strains; strain HM-747,4 µg/mL
same,MIC,C. difficile strains; strain NR49292,2 µg/mL
same,MIC,C. difficile strains; strain NR49294,2 µg/mL
same,MIC,C. difficile strains; strain NR49302,2 µg/mL
same,MIC,C. difficile strains; strain NR49305,2 µg/mL
same,MIC,C. difficile strains; strain NR49310,4 µg/mL
same,MIC,C. difficile strains; strain NR49318,4 µg/mL
same,MIC,C. difficile strains; strain NR-13427,2 µg/mL
same,MIC,C. difficile strains; strain NR-13428,4 µg/mL
same,MIC,C. difficile strains; strain NR-13429,4 µg/mL
same,MIC,C. difficile strains; strain NR-13430,2 µg/mL
same,MIC,C. difficile strains; strain NR-13431,2 µg/mL
same,MIC,C. difficile strains; strain NR-13433,4 µg/mL
same,MIC,C. difficile strains; strain NR-13434,2 µg/mL
same,MIC,C. difficile strains; strain NR-13435,4 µg/mL
same,MIC,C. difficile strains; strain NR-13436,4 µg/mL
same,MIC,C. difficile strains; strain NR-13437,4 µg/mL
same,MIC,C. difficile strains; strain NR-13438,2 µg/mL
same,MIC,C. difficile strains; strain NR-13553,2 µg/mL
same,MIC,C. difficile strains; strain NR-32882,2 µg/mL
same,MIC,C. difficile strains; strain NR-32883,2 µg/mL
same,MIC,C. difficile strains; strain NR-32884,2 µg/mL
same,MIC,C. difficile strains; strain NR-32885,4 µg/mL
same,MIC,C. difficile strains; strain NR-32886,2 µg/mL
same,MIC,C. difficile strains; strain NR-32887,4 µg/mL
same,MIC,C. difficile strains; strain NR-32888,4 µg/mL
same,MIC,C. difficile strains; strain NR-32889,4 µg/mL
same,MIC,C. difficile strains; strain NR-32890,2 µg/mL
same,MIC,C. difficile strains; strain NR-32891,4 µg/mL
same,MIC,C. difficile strains; strain NR-32892,4 µg/mL
same,MIC,C. difficile strains; strain NR-32895,2 µg/mL
same,MIC,C. difficile strains; strain NR-32896,2 µg/mL
same,MIC,C. difficile strains; strain NR-32897,2 µg/mL
same,MIC,C. difficile strains; strain NR-32900,4 µg/mL
same,MIC,C. difficile strains; strain NR-32903,2 µg/mL
same,MIC,C. difficile strains; strain NR-32904,2 µg/mL
same,MIC,C. difficile strains; strain NR-49277,2 µg/mL
same,MIC,C. difficile strains; strain NR-49278,2 µg/mL
same,MIC,C. difficile strains; strain NR-49279,2 µg/mL
same,MIC,C. difficile strains; strain NR-49280,4 µg/mL
same,MIC,C. difficile strains; strain NR-49281,4 µg/mL
same,MIC,C. difficile strains; strain NR-49282,4 µg/mL
same,MIC,C. difficile strains; strain NR-49283,4 µg/mL
same,MIC,C. difficile strains; strain NR-49284,4 µg/mL
same,MIC,C. difficile strains; strain NR-49285,2 µg/mL
same,MIC,C. difficile strains; strain NR-49286,2 µg/mL
same,MIC,C. difficile strains; strain NR-49287,2 µg/mL
same,MIC,C. difficile strains; strain NR-49288,2 µg/mL
same,MIC,C. difficile strains; strain NR-49289,2 µg/mL
same,MIC,C. difficile strains; strain NR-49290,4 µg/mL
same,MIC,C. difficile strains; strain NR-49291,2 µg/mL
same,MIC,C. difficile strains; strain NR-49293,2 µg/mL
same,MIC,C. difficile strains; strain NR-49295,4 µg/mL
same,MIC,C. difficile strains; strain NR-49296,4 µg/mL
same,MIC,C. difficile strains; strain NR-49297,2 µg/mL
same,MIC,C. difficile strains; strain NR-49298,4 µg/mL
same,MIC,C. difficile strains; strain NR-49299,2 µg/mL
same,MIC,C. difficile strains; strain NR-49300,2 µg/mL
same,MIC,C. difficile strains; strain NR-49301,2 µg/mL
same,MIC,C. difficile strains; strain NR-49303,2 µg/mL
same,MIC,C. difficile strains; strain NR-49304,4 µg/mL
same,MIC,C. difficile strains; strain NR-49306,4 µg/mL
same,MIC,C. difficile strains; strain NR-49307,4 µg/mL
same,MIC,C. difficile strains; strain NR-49308,2 µg/mL
same,MIC,C. difficile strains; strain NR-49309,2 µg/mL
same,MIC,C. difficile strains; strain NR-49311,2 µg/mL
same,MIC,C. difficile strains; strain NR-49312,4 µg/mL
same,MIC,C. difficile strains; strain NR-49313,2 µg/mL
same,MIC,C. difficile strains; strain NR-49314,2 µg/mL
same,MIC,C. difficile strains; strain NR-49315,4 µg/mL
same,MIC,C. difficile strains; strain NR-49316,4 µg/mL
same,MIC,C. difficile strains; strain NR-49317,4 µg/mL
same,MIC,C. difficile strains; strain NR-49319,4 µg/mL
same,MIC,C. difficile strains; strain NR-49320,2 µg/mL
same,MIC,C. difficile strains; strain NR-49321,4 µg/mL
same,MIC,C. difficile strains; strain NR-49323,4 µg/mL
same,MIC,C. difficile strains; strain NR-49324,4 µg/mL
same,MIC,C. difficile strains; strain NR-49325,4 µg/mL
same,MIC,C. difficile strains; strain NR-49326,2 µg/mL
same,MIC,C. difficile strains; strain NR-49327,2 µg/mL
same,MIC,C. difficile strains; strain NR-49328,2 µg/mL
same,MIC,C. difficile strains; strain NR-49329,2 µg/mL
same,MIC,C. difficile strains; strain RMA23691,4 µg/mL
same,MIC,C. difficile strains; strain RMA23828,4 µg/mL
same,MIC,C. difficile strains; strain RMA24531,4 µg/mL
same,MIC,C. difficile strains; strain RMA24923,4 µg/mL
same,MIC,C. difficile strains; strain RMA26675,4 µg/mL
same,MIC,C. difficile strains; strain RMA27081,4 µg/mL
same,MIC,C. difficile strains; strain RMA27173,4 µg/mL
same,MIC,S. aureus; S. aureus ATCC 27660,2 to 4 µg/mL
same,MIC,S. aureus; S. aureus ATCC 29213,2 µg/mL
same,MIC,S. aureus; S. aureus NRS100 (COL),1 µg/mL
same,MIC,S. aureus; S. aureus NRS119,1 to 2 µg/mL
same,MIC,S. aureus; S. aureus NRS120,2 µg/mL
same,MIC,S. aureus; S. aureus VRS1,2 µg/mL
same,MIC,S. aureus; S. aureus VRS2,2 µg/mL
same,MIC,[1],2 µg/mL
same,MIC,S. oralis ATCC 9811,>128 µg/mL
same,MIC,S. pyogenes ATCC 49399,>128 µg/mL
same,MIC,B. cereus ATCC 13061,2 µg/mL
same,MIC,E. faecalis; E. faecalis 99 (Van R),4 µg/mL
same,MIC,E. faecalis; E. faecalis 201 (Van S),4 µg/mL
same,MIC,E. faecalis; E. faecalis ATCC 29212,4 µg/mL
same,MIC,E. faecium; E. faecium 106 (Van R),2 µg/mL
same,MIC,E. faecium; E. faecium 119-39A (Van S),2 µg/mL
same,MIC,E. faecium; E. faecium NCTC 7171,4 µg/mL
same,MIC,[2],1 µg/mL
same,MIC,K. pneumoniae ATCC700603,>128 µg/mL
same,MIC,A. baumanii ATCC17961,>128 µg/mL
same,MIC,P. aeruginosa ATCC27853,>128 µg/mL
same,activity against Gram-negative organisms,Gram-negative bacteria,no activity
